Read-outs that look alike come from different tables or passages of the source.
Experiments:
[1] = test system: Cu2+–Aβ42 species in Neuro2A cells; assay: Cu2+-Aβ42-induced toxicity in Neuro2A cells (Alamar Blue); assay type: cell-based, mouse; conditions: [Aβ42] = [Cu2+] = 40 μM, compound 10 μM (ZY-12-OMe 5 μM), 40 h
Experimental: As mentioned above, compounds that are not cytotoxic at 10 μM, including ZY-12-MT, ZY-15-MT, ZY-15-OMe, ZY-17-MT, ZY-5-MT, ZY-5-DT, ZY-5-OMe, and ZY-12-OMe, were chosen for this study. Firstly, during the control studies, we observed that monomeric Aβ42 led to negligible neurotoxicity. Nevertheless, in the presence of both Cu^2+ and monomeric Aβ42, there was a significant cell death, which is likely due to the Cu^2+ associated neurotoxic Aβ42 oligomers formation.[46] […] According to the docking results, ZY-12-MT, ZY-15-OMe, ZY-15-MT, and ZY-5-OMe interact with Aβ42 tetramers mainly through residues His6, Asp7, Tyr10 (via hydrogen bonds), and Tyr10 (via π–π interactions). Some reports have also shown that His6, Asp7, and Tyr10 are potentially involved in the Cu–Aβ interactions, which explains why the compounds are able to attenuate the Cu–Aβ toxicity.[48]
Fig. 9 Cell viability results upon incubation of Neuro2A cells with monomeric Aβ42 in the presence or absence of metal ions and amphiphilic compounds. Concentrations: [Aβ42] = 40 μM, [Cu^2+] = 40 μM, [ZY-12-MT] = [ZY-15-OMe] = [ZY-15-MT] = [ZY-17-MT] = [ZY-5-OMe] = [ZY-5-MT] = [ZY-5-DT] = 10 μM, [ZY-12-OMe] = 5 μM. The error bars represent the standard deviation from five independent experiments, and the statistical analysis was evaluated according to one-way ANOVA (*p < 0.05).
Alamar Blue assay was chosen for the cytotoxicity studies.3 Mouse neuroblastoma Neuro2A (N2A) cells were grown with DMEM/10% FBS in a petri dish at 37 °C in a humidified atmosphere with 5% CO2. Then N2A cells were seeded in a 96-well plate (1.0 × 10^4/well). After 24 h incubation, cell media was changed to DMEM/N-2, and N2A cells were incubated for another 1 h. […]
(§1) For the Cu2+-Aβ-induced toxicity studies, cells were treated monomeric Aβ42, Cu2+, monomeric Aβ42 + Cu2+, and monomeric Aβ42 + Cu2+ + compounds, monomeric Aβ42 + Cu2+ + copper chelators (Me2HTACN or Me3TACN), respectively. After 40 h incubation, Alamar Blue solution (10 μL) was added, and the cells were incubated for another 90 min at 37 °C. The fluorescence intensity of each well was measured at 590 nm (excitation wavelength = 560 nm). […]
10. The effect of copper chelators on Cu2+-Aβ42 neurotoxicity
Figure S8. Cell viability results upon incubation of Neuro2A cells with 10 μM copper chelators (Me2HTACN or Me3TACN) in the presence or absence of 40 μM (Aβ42 + Cu2+). The error bars represent the standard deviation from five independent experiments, and the statistical analysis was evaluated according to one-way ANOVA. […]

[2] = Log D by octanol-PBS partition assay; assay type: physicochemical; conditions: pH 7.4, fluorescence readout
Experimental: In order to confirm that the compounds can also bind to native Aβ species, brain sections collected from 9-month-old 5xFAD transgenic mice have been employed in the fluorescence imaging studies. […] The brain sections were first incubated with our compounds, followed by Congo Red (CR), which is a well-established fluorescent probe that can bind to Aβ plaques.[34] The treated brain sections were then imaged using fluorescence microscope. […] Immunostaining with the CF594-conjugated HJ 3.4 antibody (CF594-HJ3.4) was also performed to confirm that these six compounds can bind to Aβ species specifically in the brain sections (Fig. 5). Moreover, the log D values of the compounds were also measured by octanol-PBS partition assays.[35] […]
The Log D value was measured following a published procedure using slight modifications.4 In general, compounds in 0.5 mL octanol was subjected to partition with 0.5 mL octanol-saturated
PBS. The whole mixture was stirred vigorously for 5 min, and centrifuged at 2,000 rpm for 5 min.
The top octanol layer was separated for later fluorescence measurement. The remaining PBS layer was partitioned with 0.5 mL PBS-saturated octanol, and the second top octanol layer was then separated after vigorous stirring and centrifuging at 2,000 rpm for another 5 min. The two octanol layers’ fluorescence spectra were recorded. The log D value was calculated by the fluorescence intensity ratio at the compounds’ emission wavelength for the above two octanol extractions. […]

[3] = target: T1, Aβ42 fibrils (Homo sapiens, UniProt P05067); assay: Fluorescence saturation binding assay with Aβ42 fibrils; conditions: for binding ratio, Fibrils: from cross point between plateau and initial slope
T1 construct: 1 mg of commercial Aβ42 monomer powder (from GL biochem) was dissolved in 1; purchased GL biochem
T1 sequence (P05067 672-713 limits assumed): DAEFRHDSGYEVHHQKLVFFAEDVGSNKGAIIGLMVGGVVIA
Experimental: (§2) Fig. 3 Binding constant measurements of ZY-5-OMe (left), ZY-5-MT (middle), ZY-5-DT (right) with Aβ42 fibrils (top), and oligomers (bottom). The measurements were performed in 10 mM phosphate buffered saline (PBS), pH 7.4. The Kd curves were fitted in GraphPad Prism with one site-specific binding model. Equation: Y = Bmax × X/(Kd + X). [Aβ42 fibrils] = [Aβ42 oligomers] = 5 μM.
(§3) Preparation of the Aβ42 Fibrils and Aβ42 Oligomers
(§4) Aβ42 fibrils: 1 mg of commercial Aβ42 monomer powder (from GL biochem) was dissolved in 1
(§5) mL 1,1,1,3,3,3-hexafluoro-2-propanol (HFIP) at room temperature and incubated for 1h. The
(§6) resulting solution was divided equally into two Eppendorf tubes. The solution in each Eppendorf
(§7) tube containing 0.5 mg Aβ42 monomer was then evaporated overnight and dried by vacuum
(§8) centrifuge to generate monomeric films. 100 μM Aβ42 fibrils solution was prepared by dissolving
(§9) the 0.5 mg monomeric films in 1.1 mL PBS buffer (with final DMSO concentration less than 1%)
(§10) and stiring at 37 °C for 3 days.
(§11) Aβ42 oligomers: The 0.5 mg monomeric films were dissolved in 1.1 mL PBS buffer (with final
(§12) DMSO concentration less than 1%) and incubated at 4 °C overnight. The resulting solution was
(§13) then centrifuged at 3000 rpm for 15 mins to remove the insoluble aggregates. The clear supernatant
(§14) was then used for the following experiments. […]
(§15) In Vitro Saturation Binding Studies with Aβ42 Fibrils and Aβ42 Oligomers
(§16) To a solution of increasing concentrations of compounds, a fixed concentration of the generated
(§17) aggregated Aβ42 fibrils or Aβ42 oligomers solutions (5 to 15 μM) was added to yield a total volume
(§18) of 100 μL. Nonspecific binding was determined without compounds. The mixture was incubated
(§19) for 15 min at room temperature. All fluorescence data were obtained on a SpectraMax M2e plate
(§20) reader (Molecular Devices).

[4] = Alamar Blue cytotoxicity assay in N2a cells; assay type: cell-based, mouse; conditions: mouse, N2a (Neuro2A) neuroblastoma cells, up to 10 μM, 40 h, read-out: cell viability
Experimental: (§21) After confirming these amphiphilic compounds can bind to Aβ species both in vitro and ex vivo, we next investigated whether these compounds could attenuate the toxicity of the Cu–Aβ species, as the Cu^2+ ions were reported to promote the formation of neurotoxic soluble Aβ42 oligomers.[45,46] Firstly, the Alamar Blue cell viability assay was used to measure the cytotoxicity of the compounds at different concentrations ranging from 20 μM to 2 μM in mouse neuroblastoma N2a cells (Fig. 8). […] Considering its high binding affinity to both Aβ fibrils and oligomers, we also further tested its ability to alleviate Cu^2+–Aβ42-induced toxicity. […] The underlying mechanism is unclear, but we propose that these compounds might perform similarly to the toxic oligomers that bind to some cell membrane receptors or insert into the membrane lipids to form porous channels.
(§22) Alamar Blue assay was chosen for the cytotoxicity studies.3 Mouse neuroblastoma Neuro2A (N2A) cells were grown with DMEM/10% FBS in a petri dish at 37 °C in a humidified atmosphere with 5% CO2. Then N2A cells were seeded in a 96-well plate (1.0 × 10^4/well). After 24 h incubation, cell media was changed to DMEM/N-2, and N2A cells were incubated for another 1 h. Then the cells were treated with different concentrations of compounds for 40 h, Alamar Blue solution (10 μL) was added, and the cells were incubated for another 90 min at 37 °C. The fluorescence intensity of each well was measured at 590 nm (excitation wavelength = 560 nm).
as §1

[5] = target: T2, Aβ42 oligomers (Homo sapiens, UniProt P05067); assay: Fluorescence saturation binding assay with Aβ42 oligomers; conditions: for Kd / binding ratio, Oligomers: Aβ42 oligomers; for Kd: 10 mM PBS pH 7.4, one site-specific binding model; for binding ratio, Oligomers: from cross point between plateau and initial slope; for binding preference oligomers vs fibrils (from Kd values): lower Kd for Aβ oligomers than Aβ fibrils
T2 construct: 1 mg of commercial Aβ42 monomer powder (from GL biochem) was dissolved in 1; purchased GL biochem
T2 sequence (P05067 672-713 limits assumed): as above
Experimental: as §2, §3, §4, §5, §6, §7, §8, §9, §10, §11, §12, §13, §14, §15, §16, §17, §18, §19, §20

[6] = target: T3, Aβ plaques in 5xFAD mice brain sections (Homo sapiens, UniProt P05067); assay: Fluorescence imaging of 5xFAD mouse brain sections, colocalization with Congo Red; conditions: 9-month-old 5xFAD brain sections; compound 5 μM, Congo red 2.5 μM
T3 construct: aggregated Aβ species were commonly observed in brain sections from 5xFAD transgenic mice; tissue Jackson Laboratories; host or cells: brain sections of 9-month-old 5xFAD transgenic mice
T3 sequence (P05067 672-713 limits assumed): as above
Experimental: In order to confirm that the compounds can also bind to native Aβ species, brain sections collected from 9-month-old 5xFAD transgenic mice have been employed in the fluorescence imaging studies. […] The brain sections were first incubated with our compounds, followed by Congo Red (CR), which is a well-established fluorescent probe that can bind to Aβ plaques.[34] The treated brain sections were then imaged using fluorescence microscope. […] Immunostaining with the CF594-conjugated HJ 3.4 antibody (CF594-HJ3.4) was also performed to confirm that these six compounds can bind to Aβ species specifically in the brain sections (Fig. 5). Moreover, the log D values of the compounds were also measured by octanol-PBS partition assays.[35]
Fig. 4 Fluorescence microscopy images of 5xFAD mice brain sections co-incubated with amphiphilic compounds (top), Congo red (middle) and merged images (bottom, along with the Parson's correlation coefficients R). Concentrations: [amphiphilic compounds] = 5 μM, [Congo red] = 2.5 μM; scale bar: 125 μm. TEXT PRINTED IN THE PICTURE: ZY-5-MT: Merged R= 0.84 | ZY-12-DT: Merged R= 0.52 | ZY-12-OMe: Merged R= 0.77 | ZY-15-OMe: Merged R= 0.77 | ZY-17-DT: Merged R= 0.77 | ZY-17-OMe: Merged R= 0.72 […]
Histological Staining of 5×FAD Mice Brain Sections
5xFAD transgenic mice brain sections were blocked with bovine serum albumin (2% BSA in PBS, pH 7.4, 10 min). Then the mice brain sections were transferred to a PBS solution of the compound and incubated for 1 h. After which, the brain sections were transferred to a PBS solution of Congo Red or antibody HJ 3.4 (Professor David Holtzman, 1 μg/ml) and incubated for another 1 h. Then, the brain sections were treated with BSA again (5 min) followed by washing with PBS (3 × 2 min), DI water (3 × 2 min). Finally, the mice brain sections were mounted with non-fluorescent mounting media, and the images were obtained by using EVOS FL Auto 2. ImageJ Fiji program was used for colocalization analysis and determination of the Pearson’s correlation coefficient. The primary

[7] = test system: mouse neuroblastoma N2a cells; assay: Alamar Blue cytotoxicity assay in N2a cells; assay type: cell-based; conditions: 2 to 20 μM
Experimental: as §21, §22, §1

[8] = Aβ42 fibrils, 10 mM PBS pH 7.4, one site-specific binding model, read-out: Kd, Fibrils

Compound | effect on Cu2+–Aβ42-induced toxicity (cell viability, in words) [1] | logD [2] | Kd [3, 8] | binding ratio, Fibrils ([3]; Aβ42 fibrils) | viability at 40 h [4] | Kd [5] | binding ratio, Oligomers [5] | Pearson's correlation coefficient R, colocalization with Congo Red [6] | Kd ([3]; another trial, [Aβ42 fibrils] = 5 μM, PBS pH 7.4 (Fig. S5), read-out: Kd, Aβ42 fibrils, another trial) | selectivity to Aβ oligomers (times higher than that for Aβ fibrils) ([5]; from Kd values fibrils vs oligomers) | binding preference oligomers vs fibrils (from Kd values) [5] | cytotoxicity (in words) [7]
CN1CCNCCN(C)CC1 [Me2HTACN, 1,4-dimethyl-1,4,7-triazacyclononane, reference compound] | not able to alleviate the neurotoxicity |  |  |  |  |  |  |  |  |  |  | 
CN1CCN(C)CCN(C)CC1 [Me3TACN, 1,4,7-trimethyl-1,4,7-triazacyclononane, reference compound] | not able to alleviate the neurotoxicity |  |  |  |  |  |  |  |  |  |  | 
CN1CCN(C)CCN(Cc2cc(/C=C/c3ccc(-c4ccc(N(C)C)cc4)s3)cc(CN3CCN(C)CCN(C)CC3)c2O)CC1 [ZY-5-DT] |  | 1.03 ± 0.122 | 1670 nM | 1.6 | > 80% | 2090 nM | 1.7 |  |  |  |  | 
CN1CCN(C)CCN(Cc2cc(/C=C/c3ccc(-c4ccc(N(C)C)cc4)s3)ccc2O)CC1 [ZY-5-MT] |  | 0.997 ± 0.031 | 1820 nM | 2.1 | > 80% | 460 nM | 4.9 | 0.84 | 1430 nM | 3.9 times | higher binding affinity to oligomers over fibrils | 
CN1CCN(C)CCN(Cc2cc(-c3ccc(/C=C/c4ccc(N(C)C)cc4)s3)cc(CN3CCN(C)CCN(C)CC3)c2O)CC1 [ZY-12-DT] |  | 1.13 ± 0.045 | 1380 nM | 3.5 |  | 670 nM | 3.7 | 0.52 |  |  | higher binding affinity to oligomers over fibrils | higher cytotoxicity than others
CN1CCN(C)CCN(Cc2cc(/C=C/c3ccc(-c4ccc(C=O)cc4)s3)cc(CN3CCN(C)CCN(C)CC3)c2O)CC1 [ZY-15-DT] |  | 1.16 ± 0.026 | 1270 nM | 2.9 |  | 4550 nM | 1.2 |  |  |  |  | 
COc1cc(OC)cc(-c2ccc(/C=C/c3ccc(O)c(CN4CCN(C)CCN(C)CC4)c3)cc2)c1 [ZY-17-MT] |  | 0.81 ± 0.079 | 940 nM | 5.5 | > 80% | 2080 nM | 2.0 |  |  |  |  | 
